# Assay results from patent US9440941B2, “Substituted chroman-6-yloxy-cycloalkanes and their use as pharmaceuticals” (SANOFI, priority 2013, dated 2016).
# Structures can show the parent of a compound that is named as a salt.
# Target: T1, human NCX1 (Homo sapiens, UniProt P32418)
# T1 construct: expressed in transfected cells
# Test: Inhibition of Ca2+ influx into cells (NCX1 reverse mode), FLIPR Fluo-4 assay
# Assay type: cell-based
# Conditions: inhibition of NCX1 in reverse mode (Ca2+ influx into cells); read-out: NCX1rv IC50
# Excerpt: The sodium/calcium exchanger NCX1 can transport calcium ions and sodium ions through the cell membrane. The transport is an exchange of Ca^2+ and Na^+ in two directions depending on membrane potential and ion gradients. At the first direction, named “forward mode” or “calcium export mode”, Ca^2+ is transported out of the cell and Na^+ is transported into the cell. At the other direction, named “reverse mode” or “calcium import mode”, the transport directions are vice versa. The effect of the compounds of the invention on NCX1 was determined in CHO cells stably expressing human NCX1 (gene symbol SLC8A1; cf. WO 2009/115238). The assay is based on the monitoring of intracellular Ca^2+ concentrations using a calcium-sensitive fluorescence dye which is detected by means of a FLIPR device (Fluorimetric Imaging Plate Reader, Molecular Devices).
# Assay Technology—Reverse Mode
# The assay is based on the monitoring of intracellular Ca^2+ concentrations using the calcium-sensitive dye Fluo-4. CHO cells expressing NCX1 were loaded with the dye by means of the acetoxymethyl ester Fluo-4 AM (Invitrogen, F14202), which is cleaved intracellularly by esterase activity to yield the charged species of free Fluo-4. After an preincubation period with the test compound, Gramicidine (Sigma, G5002) was added. Gramicidine is an ionophor for Na^+ ions mediating an increase of intracellular Na^+ ions. Consequently, intracellular Na^+ ions are exchanged against extracellular Ca^2+ ions (Ca^2+ influx, reverse mode). The intracellular elevation of Ca^2+ ions was detected by measuring the fluorescence of Fluo-4 at a wavelength of 520 nm by a FLIPR device.
# Briefly, for the reverse mode transport assay 18000 cells per well were seeded into a 96 well microplate (Corning COSTAR 3904) and incubated overnight in culture medium (1× Nut Mix F12 (Ham) (Gibco, 21765-029); 10% (v/v) fetal calf serum (PAA Gold, A15-649); 450 μg/ml Geneticin (Gibco, 10131-027)). A total volume of 100 μl medium per well was used. For the preparation of the FLIPR assay, the culture medium was removed from the plates and 100 μl of dye solution (2 μM Fluo-4 AM; 0.02% (v/v) Pluronic F-127 (20%, Invitrogen, P3000MP); 0.1% (v/v) bovine albumin solution (30% (v/v), Sigma, A9205) in assay buffer (133.8 mM NaCl (Sigma, S5886); 4.7 mM KCl (Sigma, P3911); 1.25 mM MgCl2 (Merck, 1.05833.0250); 3.5 mM CaCl2 (Merck, 1.02083.0250); 5 mM glucose (Sigma, G7021); 10 mM Hepes (Sigma, H4034); 0.01% (v/v) Pluronic F-127 (5%, Sigma, P2443); 2.5 mM Probenecid (Maybridge, SB00915EB); pH 7.4)) were added into each well. The plates were incubated in the dark at room temperature for 80 min. After the incubation period, the dye solution was removed and the wells were washed with 100 μl of assay buffer. Then 80 μl of a solution of the test compound in assay buffer in different concentrations were added into the wells. The plates were incubated at 16° C. for 45 min. Meanwhile a 60 μM solution of Gramicidine in assay buffer (4° C.) was prepared and stored in the wells of a 96 well microplate (96 well microplate, polypropylene, U-shape (Greiner Bio-One, 650201)) at 4° C. until measurement was started. The fluorescence monitoring was performed at 240 measuring points with measurement intervals of 2 sec. After the fifth measuring point, 40 μl of the Gramicidine solution were added to each well of the assay plates to give a final Gramicidine concentration of 20 μM. For the determination of the IC50 values the minimal fluorescence value was subtracted from the maximal fluorescence value for all measuring points. The calculation of the IC50 values via the percentage inhibitions of Ca^2+ influx into cells (reverse mode) effected by the test compound was performed in Biost@t Speed 2.0.
row,IC50,Structure (SMILES)
1,0.1 µM,"Cc1c(F)cccc1C1CCc2cc(OC3CCC(C(=O)NC4CCCCC4O)CC3)ccc2O1 (single isomer, unassigned) [compound 287]"
2,0.4 µM,"COC(=O)CNC(=O)C1CCC(Oc2ccc3c(c2)CCC(c2ccccc2)O3)CC1 (single isomer, unassigned; stereoisomer 1) [compound 91, Methyl 2-{[cis-4-(2-phenylchroman-6-yloxy)cyclohexanecarbonyl]amino}acetate,stereoisomer 1 (2)]"
3,0.3 µM,"CCn1nccc1CNC(=O)C1CCC(Oc2ccc3c(c2)CCC(c2ccccc2)O3)CC1 (single isomer, unassigned; stereoisomer 1) [compound 93, N-(2-Ethyl-2H-pyrazol-3-ylmethyl)-[cis-4-(2-phenylchroman-6-yloxy)]-cyclohexanecarboxamide, stereoisomer 1 (2)]"
4,0.2 µM,"Cc1nc(CNC(=O)[C@H]2CC[C@@H](Oc3ccc4c(c3)CCC(c3ccccc3)O4)CC2)no1 (single isomer, unassigned; stereoisomer 1) [compound 95, N-(5-Methyl-[1,2,4]oxadiazol-3-ylmethyl)-[4-cis-(2-phenylchroman-6-yloxy)]-cyclohexanecarboxamide, stereoisomer 1 (2)]"
5,0.7 µM,"Cc1c(F)cccc1C1CCc2cc(OC3CCC(C(=O)NC4CCCC4O)CC3)ccc2O1 (single isomer, unassigned; stereoisomer 1) [compound 279, 4-[2-(3-Fluoro-2-methyl-phenyl)chroman-6-yloxy]-N-(2-hydroxycyclopentyl)cyclohexane-carboxamide, stereoisomer 1 (2)]"
6,0.1 µM,"COC(=O)CNC(=O)C1CCC(Oc2ccc3c(c2)CCC(c2ccccc2)O3)CC1 (single isomer, unassigned; stereoisomer 2) [compound 92, Methyl 2-[[cis-4-[2-phenylchroman-6-yloxy]cyclohexanecarbonyl]amino]acetate,stereoisomer 2 (2)]"
7,1.6 µM,"CCn1nccc1CNC(=O)C1CCC(Oc2ccc3c(c2)CCC(c2ccccc2)O3)CC1 (single isomer, unassigned; stereoisomer 2) [compound 94, N-(2-Ethyl-2H-pyrazol-3-ylmethyl)-[cis-4-(2-phenylchroman-6-yloxy)]-cyclohexanecarboxamide, stereoisomer 2 (2)]"
8,0.4 µM,"Cc1nc(CNC(=O)[C@H]2CC[C@@H](Oc3ccc4c(c3)CCC(c3ccccc3)O4)CC2)no1 (single isomer, unassigned; stereoisomer 2) [compound 96, N-(5-Methyl-[1,2,4]oxadiazol-3-ylmethyl)-[4-cis-(2-phenylchroman-6-yloxy)]-cyclohexanecarboxamide, stereoisomer 2 (2)]"
9,0.1 µM,"Cc1c(F)cccc1C1CCc2cc(OC3CCC(C(=O)NC4CCCC4O)CC3)ccc2O1 (single isomer, unassigned; stereoisomer 2) [compound 280, 4-[2-(3-Fluoro-2-methyl-phenyl)chroman-6-yloxy]-N-(2-hydroxycyclopentyl)cyclohexane-carboxamide, stereoisomer 2 (2)]"
10,0.3 µM,"N[C@H]1CC[C@H](Oc2ccc3c(c2)CCC(c2ccccc2)O3)CC1 (stereo partly drawn) [compound 5, trans-4-(2-Phenylchroman-6-yloxy)cyclohexylamine]"
11,0.3 µM,"N[C@H]1CC[C@H](Oc2ccc3c(c2)CC[C@H](c2ccccc2)O3)CC1 [compound 9, hydrochloride]"
12,0.3 µM,"N[C@H]1CC[C@H](Oc2ccc3c(c2)CC[C@@H](c2ccccc2)O3)CC1 [compound 10, hydrochloride]"
13,2.8 µM,"CCC(N)C1(CC)CCC(Oc2ccc3c(c2)CCC(c2ccccc2)O3)CC1 (stereo not drawn) [compound 11, hydrochloride]"
14,0.2 µM,"NCC(=O)NC1CCC(Oc2ccc3c(c2)CCC(c2ccccc2)O3)CC1 (stereo not drawn) [compound 12, hydrochloride]"
15,0.3 µM,O=C(NCc1ccno1)C1CCC(Oc2ccc3c(c2)CCC(c2ccccc2)O3)CC1 (stereo not drawn) [compound 13]
16,0.4 µM,CCn1nccc1CNC(=O)C1CCC(Oc2ccc3c(c2)CCC(c2ccccc2)O3)CC1 (stereo not drawn) [compound 14]
17,0.2 µM,OCCNC1CCC(Oc2ccc3c(c2)CCC(c2ccccc2)O3)CC1 (stereo not drawn) [compound 15]

row,IC50,Structure (SMILES)
1,1.3 µM,CN(C)C(=O)NC1CCC(Oc2ccc3c(c2)CCC(c2ccccc2)O3)CC1 (stereo not drawn) [compound 16]
2,1 µM,"CCCC1(N)CCC(Oc2ccc3c(c2)CCC(c2ccccc2)O3)CC1 (stereo not drawn) [compound 17, hydrochloride]"
3,0.5 µM,CCCN[C@H]1CC[C@H](Oc2ccc3c(c2)CC[C@@H](c2ccccc2)O3)CC1 [compound 18]
4,0.3 µM,CO[C@H](C)C(=O)N[C@H]1CC[C@H](Oc2ccc3c(c2)CCC(c2ccccc2)O3)CC1 (stereo partly drawn) [compound 23]
5,1.3 µM,CCCN(CCC)[C@H]1CC[C@H](Oc2ccc3c(c2)CC[C@@H](c2ccccc2)O3)CC1 [compound 34]
6,0.5 µM,"CSCCCN[C@H]1CC[C@H](Oc2ccc3c(c2)CCC(c2ccccc2)O3)CC1 (stereo partly drawn) [compound 48, N-(3-Methylsulfanylpropyl)-[trans-4-(2-phenylchroman-6-yloxy)]-cyclohexylamine]"
7,0.6 µM,"Cc1cc(CN[C@H]2CC[C@H](Oc3ccc4c(c3)CCC(c3ccccc3)O4)CC2)no1 (stereo partly drawn) [compound 49, N-(5-Methylisoxazol-3-ylmethyl)-[trans-4-(2-phenylchroman-6-yloxy)]-cyclohexylamine]"
8,0.5 µM,"Cc1csc(CN[C@H]2CC[C@H](Oc3ccc4c(c3)CCC(c3ccccc3)O4)CC2)n1 (stereo partly drawn) [compound 52, N-[(4-Methylthiazol-2-yl)methyl]-[trans-4-(2-phenylchroman-6-yloxy)]-cyclohexylamine]"
9,0.5 µM,"c1ccc(C2CCc3cc(O[C@H]4CC[C@H](NCc5ccoc5)CC4)ccc3O2)cc1 (stereo partly drawn) [compound 53, N-(Furan-3-ylmethyl)-[trans-4-(2-phenylchroman-6-yloxy)]-cyclohexylamine]"
10,0.5 µM,"Cc1cc(CN[C@H]2CC[C@H](Oc3ccc4c(c3)CCC(c3ccccc3)O4)CC2)nn1C (stereo partly drawn) [compound 56, N-(1,5-Dimethylpyrazol-3-ylmethyl)-[trans-4-(2-phenylchroman-6-yloxy)]-cyclohexylamine]"
11,0.5 µM,"Cn1cncc1CN[C@H]1CC[C@H](Oc2ccc3c(c2)CCC(c2ccccc2)O3)CC1 (stereo partly drawn) [compound 57, N-(3-Methylimidazol-4-ylmethyl)-[trans-4-(2-phenylchroman-6-yloxy)]-cyclohexylamine]"
12,0.5 µM,"Cc1nc(CN[C@H]2CC[C@H](Oc3ccc4c(c3)CCC(c3ccccc3)O4)CC2)cs1 (stereo partly drawn) [compound 59, N-(2-Methylthiazol-4-ylmethyl)-[trans-4-(2-phenylchroman-6-yloxy)]-cyclohexylamine]"
13,0.6 µM,"Cn1cc(Cl)c(CN[C@H]2CC[C@H](Oc3ccc4c(c3)CCC(c3ccccc3)O4)CC2)n1 (stereo partly drawn) [compound 62, N-(4-Chloro-1-methyl-pyrazol-3-ylmethyl)-[trans-4-(2-phenylchroman-6-yloxy)]-cyclohexylamine]"
14,0.6 µM,"c1ccc(C2CCc3cc(O[C@H]4CC[C@H](NCC5CCCCC5)CC4)ccc3O2)cc1 (stereo partly drawn) [compound 63, N-(Cyclohexylmethyl)-[trans-4-(2-phenylchroman-6-yloxy)]-cyclohexylamine]"
15,0.5 µM,"CSC(C)CCN[C@H]1CC[C@H](Oc2ccc3c(c2)CCC(c2ccccc2)O3)CC1 (stereo partly drawn) [compound 64, N-(3-Methylsulfanylbutyl)-[trans-4-(2-phenylchroman-6-yloxy)]-cyclohexylamine]"
16,0.4 µM,"CC(C)CN[C@H]1CC[C@H](Oc2ccc3c(c2)CCC(c2ccccc2)O3)CC1 (stereo partly drawn) [compound 65, N-Isobutyl-[trans-4-(2-phenylchroman-6-yloxy)]-cyclohexylamine]"
